This note sets out measurements from patent publication US4666908A, “5-Substituted pyrazolo[4,3-d]pyrimidine-7-ones and methods of use” (Warner-Lambert Company, priority 1985, dated 1987).

The subject of one assay is Type 3 Phosphodiesterase. Description: Phosphodiesterase (PDE) Inhibition, Type 3 Phosphodiesterase. Type of assay: biochemical, bovine (coronary arteries). As to conditions: Type 3 PDE, at 10^-5 M, substrate 3H-cAMP 1.0 μM. The source says:
(§1) The method of Thompson, et al (Thompson, W. J., Terasaki, W. L., Epstein, P. M., Strada, S. J., Adv. Cyclic Nucleotide Res., 10:69-92, 1979), with minor modifications, was used to isolate phosphodiesterases from vascular smooth muscle. Bovine coronary arteries (right, anterior descending, and left circumflex arteries) from hearts obtained from a local slaughterhouse were used for these studies. Arteries from two hearts were used for each isolation. Hearts were kept on ice and the arteries were dissected within two hours after the animals were sacrificed. After removing all fat and connective tissue, the arteries were everted, cut into cubes with a single edge razor blade and homogenized with a Brinkman Polytron three times at a rheostat setting of 10.0 in four volumes of the PDE isolation buffer (10 mM Tris-HCl/pH 7.5, 2 mM MgCl2, and 1 mM dithiothreitol). The resulting homogenate was sonicated (30 sec/ml homogenate) and then centrifuged at 30,000 xg for 20 minutes. This and all subsequent procedures were performed at 4° C. The resulting supernatant was filtered through four layers of gauze, and applied to a DEAE-cellulose column (30×1.5 cm), prepared as described by Cheung (Cheung, W. Y., Biochim. Biophys. Acta, 191:303-315, 1969), and equilibrated with freshly prepared 70 mM sodium acetate/5 mM 2-mercaptoethanol (pH 6.5). The column was then washed with 2-3 bed volumes of sodium acetate/2-mercaptoethanol, after which the phosphodiesterases were eluted from the column using a continuous 70-1,000 mM sodium acetate gradient (pH 6.5, containing 5 mM 2-mercaptoethanol; total volume 400 ml). The flow rate was approximately equal to 25 ml/hr. Eight ml fractions were collected and assayed for cyclic AMP- and cyclic GMP-phosphodiesterase activity in the presence and absence of 0.1 units of calmodulin and 10 mM CaCl2. Appropriate fractions were pooled and dialyzed against 70 mM sodium acetate/5 mM 2-mercaptoethanol for 20 hours.
(§2) Following complete separation, the combined phosphodiesterase fractions were concentrated to 14% of the original volume using an Amicon ultrafiltration cell fitted with a UM-10 membrane, according to the method of Wells, et al (Wells, J. N., Baird, C. E., Wu, Y. J., Hardman, J. G., Biochim. Biophys. Acta, 384:430-442, 1975). Following concentration, the protein was then diluted to 65% with ethylene glycol monoethyl ether, and stored at -20° C.
(§3) Phosphodiesterase activity was measured as described previously (Weishaar, P. E., Quade, M., Boyd, D., Schenden, J., Mark, S. S., Kaplan, H. R., Drug Devel. Res., 3:517-534, 1983), in a reaction medium containing 40 mM Tris-HCl (pH 8.0), 5 mM MgCl and 4 mM 2-mercaptoethanol. Unless otherwise noted, the concentration of substrate (^3 H-cyclic AMP or ^3 H-cyclic GMP) was 1.0 μM. All agents examined were dissolved in dimethyl sulfoxide (DMSO). Final concentration of the reaction medium was either 2.5% (cardiac and platelet studies) or 1.25% (smooth muscle studies). This concentration of DMSO produced an approximately 10% inhibition of enzyme activity.

Another assay has as its system Type 1 Phosphodiesterase. The experiment in a line: Phosphodiesterase (PDE) Inhibition, Type 1 Phosphodiesterase. Type of assay: biochemical, bovine (coronary arteries). The note with it: Type 1 PDE, at 10^-5 M; for % Inhibition of hydrolysis of 3H-cAMP: substrate 3H-cAMP 1.0 μM; for % Inhibition of hydrolysis of 3H-cGMP: substrate 3H-cGMP 1.0 μM.
Text: as §1, §2, §3

The target in the next assay is T1, adenosine A1 receptor (Rattus norvegicus, UniProt P25099).
T1 construct: Whole brain minus cerebellum and brainstem from male Long Evans rats; from tissue; host or cells: whole brain minus cerebellum and brainstem, male Long Evans rats (membranes)
T1 sequence (P25099 1-326): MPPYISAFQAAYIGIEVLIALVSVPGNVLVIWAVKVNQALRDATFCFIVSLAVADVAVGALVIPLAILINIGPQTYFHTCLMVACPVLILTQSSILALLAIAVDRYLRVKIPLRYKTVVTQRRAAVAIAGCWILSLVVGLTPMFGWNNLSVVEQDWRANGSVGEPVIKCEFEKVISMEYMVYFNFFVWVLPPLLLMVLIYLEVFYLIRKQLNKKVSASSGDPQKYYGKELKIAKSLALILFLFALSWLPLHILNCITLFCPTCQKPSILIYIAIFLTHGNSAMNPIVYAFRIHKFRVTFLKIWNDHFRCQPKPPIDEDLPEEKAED
Description: Adenosine Receptor Binding - A1 Receptor Affinity (RBA1), [3H]-N6-cyclohexyladenosine displacement. The note with it: [3H]-CHA 1.0 nM, rat brain membranes, 25° C., one hour; read-out: RBA-1, IC50 for adenosine A1 receptor affinity. How it is done:
Whole brain minus cerebellum and brainstem from male Long Evans rats (150-200 g) was homogenized in 30 volumes of ice-cold 0.05M Tris-HCl buffer pH 7.7 using a Brinkman Polytron PT-10, (setting number 6 for 20 seconds) and centrifuged for ten minutes at 20,000×g (Sorvall RC-2), 4° C. The supernatant was discarded, and the pellet was resuspended and centrifuged as before. […] The homogenate was again centrifuged, and the final pellet was resuspended in ice-cold 0.05 M Tris-HCl buffer pH 7.7 to a concentration of 20 mg/ml original wet tissue weight and used immediately. […] Incubation volume was 2 ml. […] The filters were rinsed three times with 5 ml of ice cold 0.05 M Tris-HCl buffer pH 7.7. The radio-labeled ligand retained on the filter was measured by liquid scintillation spectrophotometry after shaking the filters for one hour or longer on a mechanical shaker in 10 ml of Beckman Ready-Solv HP scintillation cocktail. […] The Hill coefficient was calculated by linear regression of the line obtained by plotting the log of the bound radioligand vs the log of the [formula] The maximal number of binding sites (Bmax) was calculated from the Scatchard plot.

For assay [1], the system named is pentobarbital-anesthetized dog. The experiment in a line: In Vivo Myocardial Inotropic Activity in Anesthetized Dog (CVAD). Details: species or system dog (adult mongrel). The note with it: for change in vivo at 0.1 mg/kg / change in vivo at 0.31 mg/kg / change in vivo at 1 mg/kg / change in vivo at 3.1 mg/kg / change in vivo at 0.01 mg/kg / change in vivo at 0.03 mg/kg / change in vivo at 0.3 mg/kg: Canis lupus familiaris, iv; for change in vivo at 3.1 mg/kg: 3.10 mg/kg IV; for change in vivo at 0.3 mg/kg: Test 1, 0.30 mg/kg IV. How it is done:
This test procedure is described in the following paragraphs.
This screen consists of determining the effects of increasing intravenous doses of compound on mycardial contractility (dP/dt max of left ventricular blood pressure), heart rate, and aortic blood pressure of the pentobarbital-anesthetized dog.
Adult mongrel dogs of either sex are anesthetized with pentobarbital, 35 mg/kg, IV, and are subsequently maintained under anesthesia with a continuous infusion of pentobarbital, 3.5 mg/kg/hour. The trachea is intubated but the animals are permitted to breathe spontaneously. A cannula is inserted into the femoral vein for administrating test agents. A Millar catheter tip pressure transducer or a fluid filled catheter is inserted into the ascending aorta via the femoral artery for measuring aortic blood pressure. A Millar catheter tip pressure transducer is passed into the left ventricle via the left carotid artery for measuring left ventricular blood pressure. Needle electrodes are placed subcutaneously for recording a lead II electrocardiogram (ECG).
Left ventricular and aortic blood pressures are recorded on a strip chart recorder. Heart rate, using a biotachometer triggered from the R wave of the ECG, and the first derivative of left ventricular blood pressure (dP/dt), obtained with a differentiator amplifier coupled to the corresponding pressure amplifier, are also recorded. A period of at least 30 minutes is utilized to obtain control data prior to administration of test compound.
Ethanol or dimethylacetamide can be used as solvents if adequate dilutions can be made. Appropriate vehicle controls are administered when needed.
Each dose of the test compound is administered in a volume of […] over a period of one minute.

Where [2] appears, read: 0.31 mg/kg IV, read-out: Percent Change Heart Rate.
[3] abbreviates: 0.31 mg/kg IV, read-out: Percent Change Myocardial Contractility.
Where [4] appears, read: 1.00 mg/kg IV, read-out: Percent Change Heart Rate.
The mark [5] stands for this setting: 1.00 mg/kg IV, read-out: Percent Change Myocardial Contractility.
Where [6] appears, read: read-out: Percent Change Heart Rate.
Where [7] appears, read: read-out: Percent Change Myocardial Contractility.

Read-outs that look alike come from different tables or passages of the source.

`Cc1nn(C)c2c(=O)[nH]c(-c3ccc(Cl)cc3)nc12` [Example 7, 1,3-Dimethyl-5-(4-chlorophenyl)pyrazolo[4,3-d]pyrimidne-7-one]: the “% Inhibition of hydrolysis of 3H-cAMP” value with Type 3 Phosphodiesterase stood at 13%. Moreover, in the assay with Type 1 Phosphodiesterase, the “% Inhibition of hydrolysis of 3H-cAMP” value came to 7% and the “% Inhibition of hydrolysis of 3H-cGMP” value came out at 11%. Moreover, the IC50 – broadly, the concentration at which inhibition is half-maximal – on adenosine A1 receptor stood at 0.408 µM.
On the same counts, the results for `Cc1nn(C)c2c(=O)[nH]c(-c3ccc(C(F)(F)F)cc3)nc12` [Example 10] are -9%, 12%, 1% and 0.463 µM.
With `COc1ccccc1-c1nc2c(C)nn(C)c2c(=O)[nH]1` [Example 14], the change in vivo at 0.1 mg/kg in assay [1] (0.10 mg/kg IV, read-out: Percent Change Heart Rate) worked out at 2%; in assay [1] (0.10 mg/kg IV, read-out: Percent Change Myocardial Contractility) it was 2%. In addition, the change in vivo at 0.31 mg/kg in assay [1] (setting [2]) and in assay [1] (setting [3]) was 4% each time. Further, the change in vivo at 1 mg/kg came out at 14% in assay [1] (setting [4]) and 10% in assay [1] (setting [5]). The change in vivo at 3.1 mg/kg in assay [1] (setting [6]) is 27%; in assay [1] (setting [7]), 34%. Moreover, at adenosine A1 receptor, the IC50 came to 10 µM.
With `Cc1nn(C)c2c(O)nc(-c3ccc(S(=O)(=O)O)cc3)nc12` [Example 20, 1,3-Dimethyl-5-(4-sulfoacid phenyl)pyrazolo[4,3-d]pyrimidine-7-one], the IC50 on adenosine A1 receptor came to 13 µM.
`Cc1nn(C)c2c(=O)[nH]c(-c3ccc(S(=O)(=O)NCCN(C)C)cc3)nc12` [Example 21]: on adenosine A1 receptor, the 50% inhibitory concentration (IC50) turned out to be 0.684 µM.
Turning to `CCn1nc(C)c2nc(Cc3ccccc3)[nH]c(=O)c21` [Example 22], the change in vivo at 0.01 mg/kg is -1% in assay [1] (Test 1, 0.01 mg/kg IV, read-out: Percent Change Heart Rate); 11% in assay [1] (Test 1, 0.01 mg/kg IV, read-out: Percent Change Myocardial Contractility); -14% in assay [1] (Test 2, 0.01 mg/kg IV, read-out: Percent Change Heart Rate); -12% in assay [1] (Test 2, 0.01 mg/kg IV, read-out: Percent Change Myocardial Contractility). For the same compound, the change in vivo at 0.03 mg/kg in assay [1] (Test 1, 0.03 mg/kg IV, read-out: Percent Change Heart Rate) was -1%; in assay [1] (Test 1, 0.03 mg/kg IV, read-out: Percent Change Myocardial Contractility), 12%; in assay [1] (Test 2, 0.03 mg/kg IV, read-out: Percent Change Heart Rate), -17%; in assay [1] (Test 2, 0.03 mg/kg IV, read-out: Percent Change Myocardial Contractility), -13%. Moreover, the change in vivo at 0.1 mg/kg in assay [1] (Test 1, 0.10 mg/kg IV, read-out: Percent Change Heart Rate) is -4%; in assay [1] (Test 1, 0.10 mg/kg IV, read-out: Percent Change Myocardial Contractility), 17%; in assay [1] (Test 2, 0.10 mg/kg IV, read-out: Percent Change Heart Rate) it was -21%; in assay [1] (Test 2, 0.10 mg/kg IV, read-out: Percent Change Myocardial Contractility) it was -15%. Besides, the change in vivo at 0.3 mg/kg in assay [1] (setting [6]) is -10%; in assay [1] (setting [7]), 6%. The change in vivo at 1 mg/kg is -12% in assay [1] (Test 1, 1.00 mg/kg IV, read-out: Percent Change Heart Rate); 14% in assay [1] (Test 1, 1.00 mg/kg IV, read-out: Percent Change Myocardial Contractility); -11% in assay [1] (Test 2, 1.00 mg/kg IV, read-out: Percent Change Heart Rate); 2% in assay [1] (Test 2, 1.00 mg/kg IV, read-out: Percent Change Myocardial Contractility). For the same compound, the change in vivo at 0.31 mg/kg was -22% in assay [1] (Test 2, 0.31 mg/kg IV, read-out: Percent Change Heart Rate) and -14% in assay [1] (Test 2, 0.31 mg/kg IV, read-out: Percent Change Myocardial Contractility). For the same compound, in assay [1] (Test 1, 0.01 mg/kg IV), the “Percent Change Blood Pressure” value is 1/0. For the same compound, on adenosine A1 receptor, the IC50 amounted to 8.2 µM.
For `COc1cc(OC)cc(-c2nc3c(C)nn(C)c3c(=O)[nH]2)c1` [Example 23, 1,3-Dimethyl-5-(3,5-dimethoxyphenyl)pyrazolo[4,3-d]-pyrimidine-7-one], the entries for the “Percent Change Blood Pressure” value in assay [1] (0.01 mg/kg IV) and in assay [1] (0.31 mg/kg IV) were 2/2 and 3/4, respectively. The change in vivo at 0.01 mg/kg in assay [1] (0.01 mg/kg IV, read-out: Percent Change Heart Rate) was determined as 1%; in assay [1] (0.01 mg/kg IV, read-out: Percent Change Myocardial Contractility), 5%. Besides, the change in vivo at 0.31 mg/kg in assay [1] (setting [2]) turned out to be 3%; in assay [1] (setting [3]), 15%. The change in vivo at 1 mg/kg worked out at 6% in assay [1] (setting [4]) and 22% in assay [1] (setting [5]).
